Measured values as given in PubChem BioAssay (NCI).
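Step 1: Grow cells in 96-well plates. Step 2: Expose to compound for 48 hours at 5 concentrations. Step 3: Interpolate endpoints linearly; if unreached, use highest concentration. The concentration for 50% growth inhibition is given as GI50. TGI marks complete inhibition of growth.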

Tests used:
Assay in all cases: NCI-60 cell line screen, 48 h
SN12C renal = tested on: SN12C renal
HL-60(TB) leukemia = tested on: HL-60(TB) leukemia
ACHN renal = tested on: ACHN renal
A498 renal = tested on: A498 renal
NCI-H522 lung = tested on: NCI-H522 lung
HOP-62 NSCLC = tested on: HOP-62 NSCLC
RXF 393 renal = tested on: RXF 393 renal
U251 CNS = tested on: U251 CNS
NCI-H460 lung = tested on: NCI-H460 lung
MDA-MB-231 breast = tested on: MDA-MB-231 breast
TK-10 renal = tested on: TK-10 renal
SW-620 colon = tested on: SW-620 colon
SK-MEL-28 melanoma = tested on: SK-MEL-28 melanoma
MOLT-4 leukemia = tested on: MOLT-4 leukemia
MCF7 breast = tested on: MCF7 breast
HOP-92 NSCLC = tested on: HOP-92 NSCLC
MALME-3M melanoma = tested on: MALME-3M melanoma
T-47D breast = tested on: T-47D breast
SF-539 CNS = tested on: SF-539 CNS
SF-295 CNS = tested on: SF-295 CNS
SK-MEL-5 melanoma = tested on: SK-MEL-5 melanoma
CCRF-CEM leukemia = tested on: CCRF-CEM leukemia
OVCAR-4 ovarian = tested on: OVCAR-4 ovarian
A549 NSCLC = tested on: A549 NSCLC
MDA-MB-435 = tested on: MDA-MB-435
HT29 colon = tested on: HT29 colon
COLO 205 colon = tested on: COLO 205 colon
NCI-H23 lung = tested on: NCI-H23 lung
KM12 colon = tested on: KM12 colon
BT-549 breast = tested on: BT-549 breast
SNB-19 CNS = tested on: SNB-19 CNS
EKVX NSCLC = tested on: EKVX NSCLC
IGROV1 ovarian = tested on: IGROV1 ovarian
PC-3 prostate = tested on: PC-3 prostate
DU-145 prostate = tested on: DU-145 prostate
NCI-H226 lung = tested on: NCI-H226 lung
OVCAR-8 ovarian = tested on: OVCAR-8 ovarian
LOX IMVI melanoma = tested on: LOX IMVI melanoma
HS 578T breast = tested on: HS 578T breast
UACC-62 melanoma = tested on: UACC-62 melanoma
OVCAR-5 ovarian = tested on: OVCAR-5 ovarian
SF-268 CNS = tested on: SF-268 CNS
SK-OV-3 ovarian = tested on: SK-OV-3 ovarian
OVCAR-3 ovarian = tested on: OVCAR-3 ovarian
SK-MEL-2 melanoma = tested on: SK-MEL-2 melanoma
K-562 leukemia = tested on: K-562 leukemia
SNB-75 CNS = tested on: SNB-75 CNS
UO-31 renal = tested on: UO-31 renal
CAKI-1 renal = tested on: CAKI-1 renal
M14 melanoma = tested on: M14 melanoma
SR leukemia = tested on: SR leukemia
786-0 renal = tested on: 786-0 renal
UACC-257 melanoma = tested on: UACC-257 melanoma
RPMI-8226 leukemia = tested on: RPMI-8226 leukemia
HCT-15 colon = tested on: HCT-15 colon
NCI/ADR-RES ovarian = tested on: NCI/ADR-RES ovarian
HCC-2998 colon = tested on: HCC-2998 colon
HCT-116 colon = tested on: HCT-116 colon

COC(=O)c1[nH]nc(-c2ccccc2)c1N1CCCCC1
GI50 (SN12C renal): 15.5 µM | TGI (SN12C renal): 41.5 µM | GI50 (HL-60(TB) leukemia): > 100 µM | TGI (HL-60(TB) leukemia): > 100 µM | GI50 (ACHN renal): 25.6 µM | TGI (ACHN renal): 62.1 µM | GI50 (A498 renal): 17.4 µM | TGI (A498 renal): 57.2 µM | GI50 (NCI-H522 lung): 36.8 µM | TGI (NCI-H522 lung): > 100 µM | GI50 (HOP-62 NSCLC): 22 µM | TGI (HOP-62 NSCLC): 57 µM | GI50 (RXF 393 renal): 20.7 µM | TGI (RXF 393 renal): 54.5 µM | GI50 (U251 CNS): 26.6 µM | TGI (U251 CNS): 78.8 µM | GI50 (NCI-H460 lung): 38.1 µM | TGI (NCI-H460 lung): > 100 µM | GI50 (MDA-MB-231 breast): 31.2 µM | TGI (MDA-MB-231 breast): 65.9 µM | GI50 (TK-10 renal): 32.5 µM | TGI (TK-10 renal): 68.2 µM | GI50 (SW-620 colon): 75.6 µM | TGI (SW-620 colon): > 100 µM | GI50 (SK-MEL-28 melanoma): 52.1 µM | TGI (SK-MEL-28 melanoma): > 100 µM | GI50 (MOLT-4 leukemia): 62.6 µM | TGI (MOLT-4 leukemia): > 100 µM | GI50 (MCF7 breast): 29.5 µM | TGI (MCF7 breast): > 100 µM | GI50 (HOP-92 NSCLC): 19 µM | TGI (HOP-92 NSCLC): 64 µM | GI50 (MALME-3M melanoma): 39.3 µM | TGI (MALME-3M melanoma): > 100 µM | GI50 (T-47D breast): 27 µM | TGI (T-47D breast): 72.4 µM | GI50 (SF-539 CNS): 20.6 µM | TGI (SF-539 CNS): 57.4 µM | GI50 (SF-295 CNS): 45.7 µM | TGI (SF-295 CNS): > 100 µM | GI50 (SK-MEL-5 melanoma): 34 µM | TGI (SK-MEL-5 melanoma): > 100 µM | GI50 (CCRF-CEM leukemia): 72.9 µM | TGI (CCRF-CEM leukemia): > 100 µM | GI50 (OVCAR-4 ovarian): 86.7 µM | TGI (OVCAR-4 ovarian): > 100 µM | GI50 (A549 NSCLC): 43.6 µM | TGI (A549 NSCLC): > 100 µM | GI50 (MDA-MB-435): 64.7 µM | TGI (MDA-MB-435): > 100 µM | GI50 (HT29 colon): 57.9 µM | TGI (HT29 colon): > 100 µM | GI50 (COLO 205 colon): > 100 µM | TGI (COLO 205 colon): > 100 µM | GI50 (NCI-H23 lung): 26.3 µM | TGI (NCI-H23 lung): 85.6 µM | GI50 (KM12 colon): 55.8 µM | TGI (KM12 colon): > 100 µM | GI50 (BT-549 breast): 43.9 µM | TGI (BT-549 breast): > 100 µM | GI50 (SNB-19 CNS): 36.2 µM | TGI (SNB-19 CNS): > 100 µM | GI50 (EKVX NSCLC): 23.7 µM | TGI (EKVX NSCLC): 73.3 µM | GI50 (IGROV1 ovarian): 60.8 µM | TGI (IGROV1 ovarian): > 100 µM | GI50 (PC-3 prostate): 38.9 µM | TGI (PC-3 prostate): > 100 µM | GI50 (DU-145 prostate): 30.5 µM | TGI (DU-145 prostate): > 100 µM | GI50 (NCI-H226 lung): 13.2 µM | TGI (NCI-H226 lung): 36.5 µM | GI50 (OVCAR-8 ovarian): 44.2 µM | TGI (OVCAR-8 ovarian): > 100 µM | GI50 (LOX IMVI melanoma): 42 µM | TGI (LOX IMVI melanoma): > 100 µM | GI50 (HS 578T breast): 22.4 µM | TGI (HS 578T breast): 64.7 µM | GI50 (UACC-62 melanoma): 17.3 µM | TGI (UACC-62 melanoma): 49.2 µM | GI50 (OVCAR-5 ovarian): 51.7 µM | TGI (OVCAR-5 ovarian): > 100 µM | GI50 (SF-268 CNS): 20.8 µM | TGI (SF-268 CNS): 53.5 µM | GI50 (SK-OV-3 ovarian): 36.4 µM | TGI (SK-OV-3 ovarian): > 100 µM | GI50 (OVCAR-3 ovarian): 40.7 µM | TGI (OVCAR-3 ovarian): > 100 µM | GI50 (SK-MEL-2 melanoma): > 100 µM | TGI (SK-MEL-2 melanoma): > 100 µM | GI50 (K-562 leukemia): 57.2 µM | TGI (K-562 leukemia): > 100 µM | GI50 (SNB-75 CNS): 30.6 µM | TGI (SNB-75 CNS): 84.7 µM | GI50 (UO-31 renal): 65.4 µM | TGI (UO-31 renal): > 100 µM | GI50 (CAKI-1 renal): 62.4 µM | TGI (CAKI-1 renal): 87.8 µM | GI50 (M14 melanoma): 57 µM | TGI (M14 melanoma): > 100 µM | GI50 (SR leukemia): 46.5 µM | TGI (SR leukemia): > 100 µM | GI50 (786-0 renal): 21.1 µM | TGI (786-0 renal): 57.9 µM | GI50 (UACC-257 melanoma): 39.7 µM | TGI (UACC-257 melanoma): > 100 µM | GI50 (RPMI-8226 leukemia): 38 µM | TGI (RPMI-8226 leukemia): > 100 µM | GI50 (HCT-15 colon): 36.2 µM | TGI (HCT-15 colon): > 100 µM | GI50 (NCI/ADR-RES ovarian): 22.8 µM | TGI (NCI/ADR-RES ovarian): 58.5 µM

CCOC(OCC)C(CCc1ccccc1)c1c(N)nc(N)[nH]c1=O (stereo not drawn)
TGI (SN12C renal): > 100 µM | TGI (HL-60(TB) leukemia): > 100 µM | TGI (A498 renal): > 100 µM | TGI (HOP-62 NSCLC): > 100 µM | TGI (RXF 393 renal): > 100 µM | TGI (U251 CNS): > 100 µM | TGI (NCI-H460 lung): > 100 µM | TGI (MDA-MB-231 breast): > 100 µM | TGI (TK-10 renal): > 100 µM | TGI (SW-620 colon): > 100 µM | TGI (SK-MEL-28 melanoma): > 100 µM | TGI (MOLT-4 leukemia): > 100 µM | TGI (MCF7 breast): > 100 µM | TGI (HOP-92 NSCLC): 86.8 µM | TGI (MALME-3M melanoma): > 100 µM | TGI (T-47D breast): > 100 µM | TGI (SF-539 CNS): > 100 µM | TGI (SF-295 CNS): > 100 µM | TGI (SK-MEL-5 melanoma): > 100 µM | TGI (CCRF-CEM leukemia): > 100 µM | TGI (OVCAR-4 ovarian): > 100 µM | TGI (A549 NSCLC): > 100 µM | TGI (MDA-MB-435): > 100 µM | TGI (HT29 colon): > 100 µM | TGI (COLO 205 colon): 49.3 µM | TGI (NCI-H23 lung): > 100 µM | TGI (KM12 colon): > 100 µM | TGI (BT-549 breast): > 100 µM | TGI (SNB-19 CNS): > 100 µM | TGI (EKVX NSCLC): 22.3 µM | TGI (IGROV1 ovarian): > 100 µM | TGI (HCC-2998 colon): > 100 µM | TGI (PC-3 prostate): > 100 µM | TGI (DU-145 prostate): > 100 µM | TGI (NCI-H226 lung): > 100 µM | TGI (OVCAR-8 ovarian): > 100 µM | TGI (LOX IMVI melanoma): > 100 µM | TGI (HCT-116 colon): > 100 µM | TGI (HS 578T breast): > 100 µM | TGI (UACC-62 melanoma): > 100 µM | TGI (OVCAR-5 ovarian): 73.3 µM | TGI (SF-268 CNS): > 100 µM | TGI (SK-OV-3 ovarian): 90.7 µM | TGI (OVCAR-3 ovarian): > 100 µM | TGI (SK-MEL-2 melanoma): > 100 µM | TGI (K-562 leukemia): 84.7 µM | TGI (SNB-75 CNS): > 100 µM | TGI (UO-31 renal): > 100 µM | TGI (CAKI-1 renal): > 100 µM | TGI (M14 melanoma): > 100 µM | TGI (SR leukemia): > 100 µM | TGI (786-0 renal): > 100 µM | TGI (UACC-257 melanoma): > 100 µM | TGI (RPMI-8226 leukemia): > 100 µM | TGI (HCT-15 colon): > 100 µM | TGI (NCI/ADR-RES ovarian): > 100 µM
